Activity calls are given as the source filed them.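 Rule for the calls: active = compounds inhibiting PP5 with an IC50 below 50 µM; inactive = IC50 of 50 µM or more.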
Molecular target: Serine/threonine-protein phosphatase 5 (Homo sapiens) (UniProt P53041)
Assay: human PP5c inhibitor potency, radiometric – biochemical, radiolabel, glycogen phosphorylase substrate, set 2, selectivity assay for PP1 inhibitor project, late-stage follow-up (AID 652225)
Details: purified PP5c, 32P-glycogen phosphorylase dephosphorylation, scintillation

Sequence of Serine/threonine-protein phosphatase 5 (Homo sapiens) (P53041 whole entry, looked up): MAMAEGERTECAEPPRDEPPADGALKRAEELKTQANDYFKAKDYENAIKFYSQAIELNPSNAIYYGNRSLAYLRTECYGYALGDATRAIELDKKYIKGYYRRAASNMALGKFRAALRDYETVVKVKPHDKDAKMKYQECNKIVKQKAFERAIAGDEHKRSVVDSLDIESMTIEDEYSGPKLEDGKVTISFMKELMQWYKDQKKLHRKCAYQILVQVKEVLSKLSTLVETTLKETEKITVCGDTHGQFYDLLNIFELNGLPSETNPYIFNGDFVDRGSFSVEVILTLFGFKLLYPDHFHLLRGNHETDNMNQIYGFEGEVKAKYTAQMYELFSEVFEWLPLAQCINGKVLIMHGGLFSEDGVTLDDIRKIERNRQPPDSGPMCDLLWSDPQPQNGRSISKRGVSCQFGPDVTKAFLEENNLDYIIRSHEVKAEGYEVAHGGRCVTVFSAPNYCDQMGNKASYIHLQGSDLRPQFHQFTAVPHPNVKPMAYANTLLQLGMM

SMILES | IC50
COc1ccc(NC(=O)C2C3CCC(O3)C2C(=O)O)c(OC)c1 (stereo not given) | 4.16 µM
CCn1c2ccccc2c2cc(NC(=O)COC(=O)c3ccc(NC(=O)CC#N)cc3)ccc21 | > 50 µM (inactive)
N#Cc1c(-c2ccc(Cl)cc2)cc(-c2cccs2)nc1SCC(=O)O | > 50 µM (inactive)
CCOC(=O)c1sc2nc3c(SCC(=O)O)cc(C(=O)c4cc(F)ccc4O)cn3c(=O)c2c1C | > 50 µM (inactive)
CN1CCN(C(c2ccccn2)c2cc(Cl)c3cccnc3c2O)CC1 (stereo not given) | > 50 µM (inactive)

Reference: PubChem BioAssay AID652225 (The Scripps Research Institute Molecular Screening Center, 2013)
